Assay results as given in PMC6269910 (Molecules, 2013).

What was measured:
[1] = system: acetic acid-induced abdominal constriction; test: Acetic acid-induced writhing (Koster) test; type: in vivo, mice
Method: Test samples, suspended in a mixture of distilled water and 0.5% sodium carboxymethyl cellulose (CMC), were given orally to the animals. The control group animals received the same experimental handling as those of the test groups, except that the drug treatment was replaced with appropriate volumes of the dosing vehicle. […] One hour after oral administration of test sample, each mouse was injected intraperitoneally with 3% (w/v) acetic acid solution (0.1 mL/10 g, bw). Starting 5 min after the acetic acid injection, the number of muscular contractions on mice were counted for a period of 10 min. A significant reduction in the number of writhings by any treatment as compared to the number of writhings in control animals was considered a positive analgesic response. The analgesic activity was expressed as a percentage change from writhing controls. ASA was used as a reference compound and administered at 200 mg/kg.

[2] = system: lipid peroxidation in stomach; test: Lipid peroxidation in stomach (TBARS); type: in vivo, mice; settings: 100 mg/kg, 8 h after analgesic test
[3] = target: T1, HCV NS5B RNA dependent RNA polymerase (Hepatitis C virus genotype 1b, UniProt P26663); test: NS5B inhibition assay (primer dependent elongation, poly rA-U12); type: biochemical; settings: read-out: Anti-NS5B Activity (% Inh., 100 µM)
T1 construct: HCV NS5B RNA dependent RNA polymerase activity
T1 sequence (P26663 2420-3010): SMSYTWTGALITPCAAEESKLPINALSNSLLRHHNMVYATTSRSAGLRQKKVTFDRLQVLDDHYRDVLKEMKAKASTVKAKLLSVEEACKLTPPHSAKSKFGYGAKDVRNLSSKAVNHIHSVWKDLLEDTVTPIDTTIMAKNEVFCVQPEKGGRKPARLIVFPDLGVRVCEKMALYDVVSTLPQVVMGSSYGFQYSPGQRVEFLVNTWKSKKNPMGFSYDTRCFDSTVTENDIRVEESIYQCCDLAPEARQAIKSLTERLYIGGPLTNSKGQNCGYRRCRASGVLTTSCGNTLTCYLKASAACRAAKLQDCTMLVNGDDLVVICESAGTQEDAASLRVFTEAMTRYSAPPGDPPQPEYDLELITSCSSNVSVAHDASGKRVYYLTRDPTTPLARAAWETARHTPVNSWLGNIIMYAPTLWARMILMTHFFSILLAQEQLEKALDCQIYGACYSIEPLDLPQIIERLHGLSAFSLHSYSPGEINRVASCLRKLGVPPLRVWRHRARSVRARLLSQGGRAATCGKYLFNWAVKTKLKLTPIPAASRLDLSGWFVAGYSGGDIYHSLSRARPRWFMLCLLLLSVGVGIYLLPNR
Method: The compounds 1a–e and 2a–e were reconstituted in DMSO as 50 mM stocks, and serially diluted in DMSO to obtain working stocks. Wedelolactone, a known inhibitor of HCV NS5B activity, was employed as a reference compound. Preliminary screening was carried out at 100 μM to identify a wider range of compounds.
All synthesized compounds were evaluated for their effect on HCV NS5B RNA dependent RNA polymerase activity in primer dependent elongation assays as previously described. Activity of NS5B in the absence of the inhibitor but containing an equivalent amount of DMSO (control reaction) was set at 100% and that in the presence of the inhibitor was quantified relative to this control.

[4] = system: carrageenan-induced hind paw edema; test: Carrageenan-induced hind paw edema model; type: in vivo, mice
Method: Locally bred balb/c mice of both sexes (30-35 g) were purchased from the animal breeding laboratories of Inonu University ([…], Turkey). The animals were fed a standard pellet diet and water ad libitum in a temperature-controlled room. On the day before the treatments, food was withdrawn, but the animals were allowed free access of water. The allocation of animals to different groups was randomized, and the experiments were carried out under blind conditions. Mice used in the present study were cared for in accordance with the directory of the Inonu University Animal Care Unit, which applies the guidelines of the National Institutes of Health on laboratory animal welfare. Procedures involving animals and their care were conducted in conformity with international laws and policies and animal studies accepted by Inonu University Ethical Council (2011/A17). Test samples, suspended in a mixture of distilled water and 0.5% sodium carboxymethyl cellulose (CMC), were given orally to the animals. The control group animals received the same experimental handling as those of the test groups, except that the drug treatment was replaced with appropriate volumes of the dosing vehicle. […] For the preliminary activity screening, each test group was composed of four mice. […] Because of the daily changing circumstance, we used another control group for each experiment. For the determination of the effects on carrageenan-induced paw oedema, the modified method of Kasahara et al. was employed. One hour after the oral administration of either test sample or dosing vehicle, each mouse was injected with a freshly prepared (0.5 mg/25 μL) suspension of carrageenan (Sigma, St. Louis, MO, USA) in physiological saline (154 mM NaCl). The subplantar tissue of the right hind paw was the injection site for all mice. The contralateral paw (left hind paw) was injected with 25 μL saline solution as the internal control. […] The difference in footpad thickness between the right and left foot indicated the degree of inflammation for each mouse. The change in paw volume, either increase or decrease, was calculated and compared with the control group (dosing vehicle) and analyzed using statistical methods.

stomach = test: Gastric-ulcerogenic effect (ulcer score); type: in vivo, mice; settings: 200 mg/kg p.o.; animals with lesions/animals

## Cc1ccc(-c2cc(C(F)(F)F)nn2-c2ccc(S(=O)(=O)/N=C3\SCC(=O)N3c3ccc([N+](=O)[O-])cc3)cc2)cc1 [Compound 2d, N-[3-(4-Nitrophenyl)-4-oxo-1,3-thiazolidin-2-yldene)-4-[5-(4-methylphenyl)-3-(trifluoromethyl)-1H-pyrazol-1-yl]benzenesulfonamide]
[1]; 100 mg/kg
  analgesic activity (in words): not statistically significant
[1]; 100 mg/kg oral
  Writhing test (% inh.): 31%
[1]; 100 mg/kg oral, writhings counted 10 min from 5 min after acetic acid
  Writhing test (Mean ± SEM): 12.0 ± 2.6
[2]
  Lipid peroxidation: 350.2 ± 9.9 nmol TBARS/g wet weight
other
  melting point: 270 to 272 °C
[3]
  inhibition at 100 µM: 31.3%
[4]; 50 mg/kg per os, 90 min
  Swelling in thickness ± SEM: 47.0 ± 3.3 × 10^−2 mm
  percent inhibitory activity: 34.7%
[4]; 50 mg/kg per os, 180 min
  Swelling in thickness ± SEM: 47.0 ± 3.7 × 10^−2 mm
  percent inhibitory activity: 48.9%
[4]; 50 mg/kg per os, 270 min
  Swelling in thickness ± SEM: 89.0 ± 6.5 × 10^−2 mm
  percent inhibitory activity: 26.4%
[4]; 50 mg/kg per os, 360 min
  Swelling in thickness ± SEM: 110.0 ± 6.7 × 10^−2 mm
  percent inhibitory activity: 14.7%
[4]; 100 mg/kg per os, 90 min
  Swelling in thickness ± SEM: 73.2 ± 11.1 × 10^−2 mm
[4]; 100 mg/kg per os, 180 min
  Swelling in thickness ± SEM: 100.6 ± 5.8 × 10^−2 mm
[4]; 100 mg/kg per os, 270 min
  Swelling in thickness ± SEM: 98.2 ± 16.7 × 10^−2 mm
  percent inhibitory activity: 21.6%
[4]; 100 mg/kg per os, 360 min
  Swelling in thickness ± SEM: 120.9 ± 9.3 × 10^−2 mm
  percent inhibitory activity: 6.3%
[4]; 200 mg/kg per os, 90 min
  Swelling in thickness ± SEM: 80.6 ± 9.4 × 10^−2 mm
[4]; 200 mg/kg per os, 180 min
  Swelling in thickness ± SEM: 86.0 ± 9.4 × 10^−2 mm
  percent inhibitory activity: 6.5%
[4]; 200 mg/kg per os, 360 min
  Swelling in thickness ± SEM: 108.6 ± 5.6 × 10^−2 mm
  percent inhibitory activity: 15.8%
[4]; all doses, all measurement intervals
  anti-inflammatory activity (in words): moderate-to-good
stomach
  Ulcer score: 0/5
